Source: the METLIN SMRT retention time set (Domingo-Almenara et al. 2019)

Test: gradient 5% acetonitrile 3 min, to 50% in 2 min, to 85% in 15 min, held 3 min, 100 µL/min
Conditions: column: Zorbax Extend-C18 2.1 x 50 mm; eluents: water / acetonitrile, 0.1% formic acid
Summary of the method: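 Mixtures of ~100 pure standards were chromatographed on a Zorbax Extend-C18 column (2.1 × 50 mm, 1.8 μm) at 100 μL/min using water and acetonitrile, each with 0.1% formic acid. Detection used a quadrupole time-of-flight mass spectrometer in positive and negative ionization mode, and data collection spanned 3 months. Retention time was obtained from adduct peaks picked computationally and each checked manually.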

| RP-LC retention time | Structure (SMILES) |
| --- | --- |
| 660 s | COc1ccc(N2CCN(C(=O)c3c(OC)cc(=O)n4c3CCCC4)CC2)cc1 |
| 793 s | Cc1ccc(NC(=O)N2CCC(CC(=O)N3CCCCC3)CC2)cc1C |
| 876 s | O=C(c1cccs1)N1N=C(c2cccs2)CC1c1cc([N+](=O)[O-])ccc1O (stereo unspecified) |
| 591 s | Cc1oc2ncnc(N3CCCCC3)c2c1C(=O)N1CCN(c2ccccn2)CC1 |
| 562 s | CCn1ccc(C(=O)N2CCN(c3nnc4ccc(Cl)cn34)CC2)n1 |
| 866 s | COc1ccccc1-c1noc(C2CCCN2C(=O)Cc2ccc(F)cc2)n1 (stereo unspecified) |
| 767 s | CCOc1ccc(CCNC(=O)C2CCCN(c3nccc(C)n3)C2)cc1OCC (stereo unspecified) |
| 781 s | CN1C(=O)c2cccnc2Sc2cc(NC(=O)c3ccccc3Cl)ccc21 |
| 1040 s | CSc1cccc(NC(=O)C2CCCN(C(=O)Cc3cccc4ccccc34)C2)c1 (stereo unspecified) |
| 1280 s | Cc1ccc(C)c(NC(=O)C2CCCN(c3nc4c(s3)c(C)nn4-c3cccc(F)c3)C2)c1 (stereo unspecified) |
| 961 s | COC(=O)C1C(=O)C2=C(CC1C)NC(C)=C(C(=O)OCCOC(C)C)C2c1cccc(F)c1 (stereo unspecified) |
| 631 s | Cn1nnc2c(SCC(=O)NCc3ccco3)ncnc21 |
| 565 s | COc1ccc(CCNC(=O)NCC2CCN(Cc3ccsc3)CC2)cc1 |
| 857 s | CCCN1C(=O)Cc2ccccc2C1C(=O)NCc1ccc(Br)cc1 (stereo unspecified) |
| 788 s | CCOC(=O)c1c(C)[nH]c(CCC(=O)NCCc2ccco2)c1C |
| 695 s | CCOC(=O)CC(NC(=O)CCc1c(C)nc2ncnn2c1C)c1ccc(C)cc1 (stereo unspecified) |
| 637 s | O=C(CCCS(=O)(=O)c1ccc(F)cc1)Nc1nnc(-c2ccno2)o1 |
| 670 s | O=C(Cn1c(=O)n(C2CC2)c(=O)c2nscc21)NCc1cccs1 |
| 687 s | COc1ccc(CN(Cc2ccccc2)Cc2cc(=O)n3cc(Cl)ccc3n2)cc1OC |
| 584 s | CC(C)COc1cc(=O)n2c(c1C(=O)NCCCN1CCCCC1)CCCCC2 |
| 716 s | COCCCNC(=O)c1nn(-c2ccc(Cl)cc2)c2c(=O)n(C)cnc12 |
| 611 s | CN(CCNC(=O)c1ccc(-c2ccnc(N3CCCC3)n2)cc1)C1CCCCC1 |

| RP-LC retention time | Structure (SMILES) |
| --- | --- |
| 1000 s | CCc1cccc(NS(=O)(=O)c2ccc(-c3nnc(C4CCC4)o3)o2)c1 |
| 570 s | Cc1cc(=O)n(CC(=O)NCc2ccccc2)c(N)n1 |
| 1050 s | O=C(Cn1c(=O)oc2ccccc21)Nc1nc(-c2ccc(Br)cc2)cs1 |
| 1140 s | Cc1ccc(-c2noc(-c3cccc(S(=O)(=O)Nc4ccc(C#N)cc4)c3)n2)cc1 |
| 646 s | COc1ccc(-c2noc(CCc3nnc4ccc(N5CCN(C6CCCCC6)CC5)nn34)n2)cc1 |
| 703 s | O=C(Cn1cnc2nc3c(cc2c1=O)CCCC3)Nc1ccccc1F |
| 814 s | COc1ccc(NC(=O)CSc2cc(N3CCN(c4ccccc4OC)CC3)ncn2)cc1OC |
| 904 s | O=C(NC1CCCC1)N1CCC(Oc2ccc(-c3noc(C4CC4)n3)cc2)C1 (stereo unspecified) |
| 636 s | CNC(=O)C1CCN(C(=O)Nc2ccc(NC(=O)Nc3ccccc3)cc2)CC1 |
| 759 s | Cc1ccc(C)c(N2CCN(C(=O)c3cn4ccc(C)cc4n3)CC2)c1 |
| 658 s | O=C(NC1CCN(Cc2ccccc2)CC1)c1cc2n(n1)CCCN(Cc1ccc(F)cc1)C2=O |
| 1080 s | CCOc1ccccc1N1CCN(S(=O)(=O)c2nn(C)cc2C(=O)NCCC(C)C)CC1 |
| 1020 s | Cc1noc(C2CN(CCCc3ccccc3)CC23CCCC3)n1 (stereo unspecified) |
| 816 s | O=C(CCSc1ccccc1)Nc1ccc2c(c1)CN(C(=O)C1CC1)CC2 |
| 767 s | COC(=O)c1cc(Cl)c(NC(=O)C(C)C)cc1OC |
| 559 s | Cc1n[nH]c(C)c1CCC(=O)N1CCCn2ccnc2C1C1CCCC1 (stereo unspecified) |
| 766 s | CCOc1cc(=O)n2c(c1C(=O)NC1CCc3ccccc31)CCCCC2 (stereo unspecified) |
| 867 s | CCN(C(=O)CC(C)S(=O)(=O)c1ccc2c(c1)CCN2C(=O)C1CC1)c1ccccc1 (stereo unspecified) |
| 872 s | CCN1C(=O)c2cccnc2Sc2cc(NC(=O)COc3ccc(F)cc3)ccc21 |
| 775 s | Clc1ccc(-c2noc(CN3CCOCC3)n2)cc1 |
| 957 s | COc1ccccc1-c1noc(C2CCCN2C(=O)Nc2cc(C)cc(C)c2)n1 (stereo unspecified) |
| 734 s | O=C(NC1CCCCC1)N1CCC(c2noc(-c3ccccn3)n2)C1 (stereo unspecified) |

| RP-LC retention time | Structure (SMILES) |
| --- | --- |
| 810 s | Cc1ccc(-c2cc3n(n2)CCCN(C(=O)c2ccoc2)C3)cc1 |
| 1030 s | CCOc1cc(C(=O)Nc2nc(-c3ccc4c(c3)NC(=O)CO4)cs2)cc(OCC)c1OCC |
| 802 s | CCOC(=O)c1ccc(NC(=O)C2CCCN(c3nnc4c(Cl)cccn34)C2)cc1 (stereo unspecified) |
| 772 s | CCN(Cc1ccccc1)Cc1nc(-c2ccc(N3CCOCC3)nc2)no1 |
| 749 s | COc1ccc(C2(CNC(=O)c3cc(-c4ccccc4)n[nH]3)CCOCC2)cc1 |
| 781 s | COc1cccc(C(=O)Nc2cccc(-c3nc4ncccc4o3)c2)c1 |
| 628 s | O=C(Cn1c(CO)nc2ccccc21)N1CCCc2ccccc21 |
| 1020 s | CC(C)c1noc(-c2cc(=O)n(CC(=O)Nc3cccc(F)c3)c3ccccc23)n1 |
| 690 s | O=C(O)c1cnc(-c2ccc(F)cc2)nc1-c1ccncc1 |
| 661 s | CCC(=O)N1CCCN(C2=NS(=O)(=O)C(c3ccc(Cl)cc3)=C2C)CC1 |
| 820 s | CCOC(=O)c1[nH]c(C)c(C(=O)C(C)N(CCOC)C(=O)c2ccccc2Cl)c1C (stereo unspecified) |
| 828 s | CCC(C)C(=O)N1CCCN(C2=NS(=O)(=O)C(c3ccc(C)cc3)=C2C)CC1 (stereo unspecified) |
| 843 s | COc1ccc(-c2c(C)noc2NC(C)=O)cc1S(=O)(=O)N1CCN(c2ccc(F)cc2)CC1 |
| 581 s | O=c1ccc2cc(S(=O)(=O)N3CCN(c4ccccn4)CC3)ccc2[nH]1 |
| 629 s | COc1ccc(C(=O)N2C[C@@H]3C[C@H](NS(C)(=O)=O)[C@H]2C3)c(C)c1 |
| 895 s | CCN1C(=O)C(C)(C(=O)Nc2ccc(OC)c(Cl)c2)Oc2cccnc21 (stereo unspecified) |
| 576 s | O=C(CSc1nnc2ccccn12)NCc1ccco1 |
| 554 s | COCCn1ccc2nc(C)c(C(=O)N3CCN(c4ccccn4)CC3)cc2c1=O |
| 561 s | COc1cccc(CN2CCCn3nc(-c4cccc(OC)c4)cc3C2)c1 |
| 692 s | O=C(NCc1ccccc1C(F)(F)F)c1ccc2ncnc(N3CCCC3)c2c1 |
| 735 s | CCC(NC(=O)C1CCCN(c2cnc3nccnc3c2)C1)c1ccc(OC)cc1 (stereo unspecified) |

| Structure (SMILES) | RP-LC retention time |
| --- | --- |
| CC(C)CN1Cc2ccccc2-n2ccnc2C12CCN(C(=O)c1ccc(F)cc1)CC2 | 739 s |
